The source of these data is US10809252B2, “Time-resolved fluorescent immunochromatographic assay rapid test kit for type I pyrethroid” (priority 2017, dated 2020).

The subject of test [1] is universal monoclonal antibody against type I pyrethroid (hybridoma cell line QW8#). Description: conventional indirect competitive ELISA. The class given is binding, mouse. An excerpt: To screen the target positive hybridoma cell line that is a highly specific and sensitive cell line against pyrethroid containing a diphenyl ether structure (by screening with etofenprox standard), the traditional two-step screening method was modified in this experiment. A gradient screening method was used in the indirect competitive ELISA screening process. (1) In the first step, an indirect non-competitive ELISA was used to screen the positive wells that recognized the diphenyl ether structure, but not the carrier protein (BSA). […] The positive wells with relatively small B/B0 were selected, where B is the absorbance in the control well […] etofenprox standard, and B0 is the absorbance in the wells with etofenprox standard. The cells were cloned by limiting dilution, and detected about 10 days after the cloning by using the same two-step method as described above. […]
The affinity for QW8# was determined by indirect non-competitive ELISA. […] The OD450 values measured was used as the vertical coordinates, the values of the logarithm of the antibody concentrations (mol/L) were used as the horizontal coordinates, 4 S-shaped curves corresponding to the 4 concentrations were plotted. […]
A general note: In an ELISA, binding on a coated surface is turned into a signal by an enzyme label.

In the next test the test system is Hapten-1-BSA. Description: affinity constant (Ka) of the antibody by indirect non-competitive ELISA. The class given is binding. The settings on record: antibody derived from mouse ascetic fluid; plate coated with Hapten-1-BSA at 2.0, 1.0, 0.5, 0.25 μg/mL. As to the method: The affinity for QW8# was determined by indirect non-competitive ELISA. The plate was coated at 37° C. for 2 hours with Hapten-1-BSA at concentrations of 2.0, 1.0, 0.5, and 0.25 μg/mL in an amount of 100 μL/well. After the plate was blocked with a blocking solution for 1 hour, the antibody diluted with PBS (at a dilution factor of 1:2) was added to the plate and the rest steps were the same as those in indirect non-competitive ELISA. The OD450 values measured was used as the vertical coordinates, the values of the logarithm of the antibody concentrations (mol/L) were used as the horizontal coordinates, 4 S-shaped curves corresponding to the 4 concentrations were plotted. The maximum OD value (ODmax) at the top of each S-curve, that is, the concentration of the antibody that corresponds to 50% of the ODmax, was obtained from each curve. The 4 concentrations were paired, and the affinity constant (Ka) of the antibody was calculated by using the formula Ka=(n−1)/2(n[Ab′]t−[Ab]t), where [Ab′]t, and [Ab]t are antibody concentrations corresponding to 50% of two ODmax values in each group, and n is the multiple of the antigen concentration coated in each group.

As to `CC1(C)C(C=C(Cl)Cl)C1C(=O)OCc1cccc(Oc2ccccc2)c1` (stereo not drawn) [permethrin], the “IC50 value of the universal monoclonal antibody” value in test [1] was determined as 0.0242 µg/mL. For the molecule `CCOc1ccc(C(C)(C)COCc2cccc(Oc3ccccc3)c2)cc1` [etofenprox], the “IC50 value of the universal monoclonal antibody” value in test [1] amounted to 0.02086 µg/mL.

B1: QW8#: universal monoclonal antibody against type I pyrethroid secreted by hybridoma cell line QW8# (CCTCC C2016164), subtype IgG2a (antibody, V domains shown)
VH: QVTLKESGPGILQPSQTLSLTCSFSGFSLSTYGIGIGWIRQSSGRGLEWLAHIWWNDNRYYNIALKSRLTISKDASNNQFFLKLASVDTADIATYYCVRGYGRPFYAMDYWGQGTTVTVSS
VL: QAVVTQESALTTSPGETVTLTCRSSTGAVTTSNYVNWVQEKPDHLFTGLIGGTNNRGPGVPARFSGSLIGDKAALTITGTQTEDEAIYFCALWYSNHWVFGGGTKLTVL
For the molecule B1, the “affinity (affinity constant Ka) of the antibody” value in the test on Hapten-1-BSA is 2.16e+08 L/mol.
